Measurements published in patent US8691865B2 (AbbVie Inc., priority 2008, dated 2014).

biological target: human Cav2.2 (Homo sapiens, UniProt Q00975); test: Assessment of calcium channel activity using FLIPR (Ca2+ influx in IMR32 cells); assay type: cell-based; settings: not given
How it was run: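 IC50 values derive from nonlinear sigmoidal fitting of percent inhibition, relative to inhibitor-free activity, of Ca2+ influx read by FLIPR. Cells were IMR32 human neuroblastoma, plated at 1−1.2×10^5 per well and grown 48 h at 37 °C.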

Sequence of human Cav2.2 (Q00975 whole entry): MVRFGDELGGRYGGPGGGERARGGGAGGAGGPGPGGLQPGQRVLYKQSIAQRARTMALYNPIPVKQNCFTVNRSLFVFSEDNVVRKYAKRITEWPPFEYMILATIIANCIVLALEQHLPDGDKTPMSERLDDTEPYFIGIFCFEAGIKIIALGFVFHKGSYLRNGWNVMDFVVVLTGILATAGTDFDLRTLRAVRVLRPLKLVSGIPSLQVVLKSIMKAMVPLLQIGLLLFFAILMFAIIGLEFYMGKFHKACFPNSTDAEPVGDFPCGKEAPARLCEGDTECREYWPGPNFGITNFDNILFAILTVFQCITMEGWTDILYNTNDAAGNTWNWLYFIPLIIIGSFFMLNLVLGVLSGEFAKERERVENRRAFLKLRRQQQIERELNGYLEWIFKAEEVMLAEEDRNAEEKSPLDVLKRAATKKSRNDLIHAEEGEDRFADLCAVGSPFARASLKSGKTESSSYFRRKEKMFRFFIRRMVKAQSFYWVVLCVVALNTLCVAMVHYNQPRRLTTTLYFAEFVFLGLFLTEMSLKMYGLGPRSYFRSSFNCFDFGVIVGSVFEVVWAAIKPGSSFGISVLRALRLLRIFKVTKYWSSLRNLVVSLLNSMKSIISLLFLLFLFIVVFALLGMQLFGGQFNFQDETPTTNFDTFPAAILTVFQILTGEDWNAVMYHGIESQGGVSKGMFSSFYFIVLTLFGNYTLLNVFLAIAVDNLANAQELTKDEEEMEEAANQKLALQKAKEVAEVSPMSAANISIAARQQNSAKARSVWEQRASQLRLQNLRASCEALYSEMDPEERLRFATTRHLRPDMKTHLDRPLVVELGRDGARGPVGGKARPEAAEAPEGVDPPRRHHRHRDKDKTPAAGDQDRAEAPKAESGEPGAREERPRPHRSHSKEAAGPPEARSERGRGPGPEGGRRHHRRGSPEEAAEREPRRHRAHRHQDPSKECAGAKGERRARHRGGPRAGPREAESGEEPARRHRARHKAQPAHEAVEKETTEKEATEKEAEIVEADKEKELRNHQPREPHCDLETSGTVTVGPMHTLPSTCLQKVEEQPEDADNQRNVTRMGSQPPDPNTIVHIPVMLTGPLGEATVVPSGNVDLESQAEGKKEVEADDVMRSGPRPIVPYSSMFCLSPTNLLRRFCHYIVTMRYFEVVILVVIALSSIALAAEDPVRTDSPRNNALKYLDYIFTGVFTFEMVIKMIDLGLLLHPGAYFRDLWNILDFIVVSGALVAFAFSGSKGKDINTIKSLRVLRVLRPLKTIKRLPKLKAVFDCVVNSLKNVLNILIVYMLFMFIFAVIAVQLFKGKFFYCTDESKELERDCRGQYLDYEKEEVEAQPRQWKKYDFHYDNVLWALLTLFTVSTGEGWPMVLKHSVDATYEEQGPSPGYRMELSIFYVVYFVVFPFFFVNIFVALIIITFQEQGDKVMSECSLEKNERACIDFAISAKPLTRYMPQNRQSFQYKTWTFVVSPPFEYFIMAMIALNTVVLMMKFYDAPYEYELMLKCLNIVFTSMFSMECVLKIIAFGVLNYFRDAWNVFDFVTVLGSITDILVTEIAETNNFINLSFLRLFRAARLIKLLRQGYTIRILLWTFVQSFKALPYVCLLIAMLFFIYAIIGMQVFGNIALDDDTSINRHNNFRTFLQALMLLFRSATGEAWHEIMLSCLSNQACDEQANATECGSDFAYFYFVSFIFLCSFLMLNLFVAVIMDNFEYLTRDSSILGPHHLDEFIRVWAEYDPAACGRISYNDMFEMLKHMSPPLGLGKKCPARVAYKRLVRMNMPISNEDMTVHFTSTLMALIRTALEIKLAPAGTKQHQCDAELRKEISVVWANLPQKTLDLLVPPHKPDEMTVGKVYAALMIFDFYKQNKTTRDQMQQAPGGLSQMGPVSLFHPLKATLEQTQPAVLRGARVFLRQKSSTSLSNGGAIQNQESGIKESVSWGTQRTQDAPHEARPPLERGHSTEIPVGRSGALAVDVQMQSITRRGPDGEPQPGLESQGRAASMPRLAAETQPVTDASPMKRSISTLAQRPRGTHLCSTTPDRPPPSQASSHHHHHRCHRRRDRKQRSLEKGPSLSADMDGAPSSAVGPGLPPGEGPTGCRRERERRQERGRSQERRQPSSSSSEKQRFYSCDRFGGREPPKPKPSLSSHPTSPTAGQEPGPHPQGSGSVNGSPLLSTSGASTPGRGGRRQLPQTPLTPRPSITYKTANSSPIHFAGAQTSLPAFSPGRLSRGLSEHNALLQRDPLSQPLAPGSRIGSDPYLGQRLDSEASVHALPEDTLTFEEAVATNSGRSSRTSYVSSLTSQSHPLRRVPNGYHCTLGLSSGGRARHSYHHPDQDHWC
Sequence of human Cav2.2 (P54289 25-956 partner limits assumed): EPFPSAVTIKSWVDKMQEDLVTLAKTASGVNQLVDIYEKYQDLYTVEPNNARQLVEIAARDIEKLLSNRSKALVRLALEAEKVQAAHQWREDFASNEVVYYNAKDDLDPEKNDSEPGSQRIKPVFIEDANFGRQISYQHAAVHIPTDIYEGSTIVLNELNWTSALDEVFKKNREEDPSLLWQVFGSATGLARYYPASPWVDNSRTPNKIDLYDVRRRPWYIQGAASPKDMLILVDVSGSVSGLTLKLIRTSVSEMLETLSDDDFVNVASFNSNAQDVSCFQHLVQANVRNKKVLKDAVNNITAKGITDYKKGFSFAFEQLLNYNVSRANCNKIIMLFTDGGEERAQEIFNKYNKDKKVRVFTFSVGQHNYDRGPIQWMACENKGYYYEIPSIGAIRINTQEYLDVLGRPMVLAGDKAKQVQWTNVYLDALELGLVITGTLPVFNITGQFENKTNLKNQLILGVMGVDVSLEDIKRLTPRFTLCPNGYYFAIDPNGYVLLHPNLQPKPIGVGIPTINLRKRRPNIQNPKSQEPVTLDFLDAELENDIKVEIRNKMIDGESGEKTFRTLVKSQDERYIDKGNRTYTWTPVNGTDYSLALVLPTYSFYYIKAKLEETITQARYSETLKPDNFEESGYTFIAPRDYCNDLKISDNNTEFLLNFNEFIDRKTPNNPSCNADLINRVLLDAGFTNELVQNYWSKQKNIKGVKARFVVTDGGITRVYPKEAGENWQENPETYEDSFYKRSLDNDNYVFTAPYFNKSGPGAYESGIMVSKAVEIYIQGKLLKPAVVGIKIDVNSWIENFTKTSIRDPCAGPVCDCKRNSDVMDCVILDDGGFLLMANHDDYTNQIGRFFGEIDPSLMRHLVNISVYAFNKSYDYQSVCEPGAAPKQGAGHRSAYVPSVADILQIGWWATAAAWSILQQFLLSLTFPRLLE
Sequence of human Cav2.2 (P54289 957-1103 partner limits assumed): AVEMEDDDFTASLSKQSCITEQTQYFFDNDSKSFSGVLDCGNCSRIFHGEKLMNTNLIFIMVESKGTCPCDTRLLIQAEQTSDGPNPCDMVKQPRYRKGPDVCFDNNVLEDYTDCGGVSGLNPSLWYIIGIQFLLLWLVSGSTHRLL
Sequence of human Cav2.2 (P54284 whole entry partner): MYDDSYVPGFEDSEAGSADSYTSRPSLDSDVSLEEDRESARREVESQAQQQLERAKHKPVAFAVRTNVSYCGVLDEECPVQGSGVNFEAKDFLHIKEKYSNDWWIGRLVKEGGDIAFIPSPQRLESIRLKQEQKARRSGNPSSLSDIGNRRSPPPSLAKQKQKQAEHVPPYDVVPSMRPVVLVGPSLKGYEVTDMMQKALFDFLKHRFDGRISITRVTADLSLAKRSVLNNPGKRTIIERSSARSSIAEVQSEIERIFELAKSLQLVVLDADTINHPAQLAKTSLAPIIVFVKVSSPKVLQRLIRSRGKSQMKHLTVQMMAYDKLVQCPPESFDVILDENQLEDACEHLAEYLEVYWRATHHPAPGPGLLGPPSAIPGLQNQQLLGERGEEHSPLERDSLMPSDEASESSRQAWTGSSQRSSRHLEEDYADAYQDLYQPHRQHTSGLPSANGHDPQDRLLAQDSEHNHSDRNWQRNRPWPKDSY

Compound	IC50
CC(C)C[C@@H](C(=O)N[C@@H]1CC[C@H]2CN(Cc3ccccc3)C[C@H]21)N1CCCC1 [Example 250, (2S)-N-[(3aS,4R,6aR)-2-benzyloctahydrocyclopenta[c]pyrrol-4-yl]-4-methyl-2-pyrrolidin-1-ylpentanamide]	> 30 µM
CN[C@@H](CC(C)C)C(=O)N[C@@H]1CC[C@H]2CN(S(=O)(=O)c3cccc(C(F)(F)F)c3)C[C@H]21 [Example 182, N^2-methyl-N^1-((3aS,4R,6aR)-2-{[3-(trifluoromethyl)phenyl]sulfonyl}octahydrocyclopenta[c]pyrrol-4-yl)-L-leucinamide]	1.45 µM

Second part, the compound after the results:

IC50	Compound
6.46 µM	CCC[C@H](N)C(=O)N[C@@H]1CC[C@H]2CN(S(=O)(=O)c3ccc(C(F)(F)F)cc3)C[C@H]21 [Example 423, N^1-((3aS,4R,6aR)-2-{[4-(trifluoromethyl)phenyl]sulfonyl}octahydrocyclopenta[c]pyrrol-4-yl)-L-norvalinamide]
0.94 µM	Cn1c(CN[C@H]2CC[C@@H]3CN(c4cccc(C(F)(F)F)n4)C[C@@H]32)nc2ccccc21 [Example 731, (3aR,4S,6aS)-N-[(1-methyl-1H-benzimidazol-2-yl)methyl]-2-[6-(trifluoromethyl)pyridin-2-yl]octahydrocyclopenta[c]pyrrol-4-amine]
> 30 µM	CCC[C@H](NC)C(=O)N[C@H]1CC[C@@H]2CN(S(=O)(=O)c3cccnc3)C[C@@H]21 [Example 535, N^2-methyl-N^1-[(3aR,4S,6aS)-2-(pyridin-3-ylsulfonyl)octahydrocyclopenta[c]pyrrol-4-yl]-L-norvalinamide]
22.3 µM	CN[C@@H](CC(C)C)C(=O)N[C@H]1CC[C@@H]2CN(c3ccc(C(F)(F)F)nn3)C[C@@H]21 [Example 724, N^2-methyl-N-{(3aR,4S,6aS)-2-[6-(trifluoromethyl)pyridazin-3-yl]octahydrocyclopenta[c]pyrrol-4-yl}-L-leucinamide]
2.16 µM	O=C(N[C@H]1CC[C@@H]2CN(c3ccccc3OC(F)(F)F)C[C@@H]21)[C@@H]1C[C@@H](F)CN1 [Example 656, (4R)-4-fluoro-N-{(3aR,4S,6aS)-2-[2-(trifluoromethoxy)phenyl]octahydrocyclopenta[c]pyrrol-4-yl}-L-prolinamide]
11.9 µM	CN[C@@H](CC(C)C)C(=O)N[C@H]1CC[C@@H]2CN(c3ccnc(C(F)(F)F)n3)C[C@@H]21 [Example 723, N^2-methyl-N-{(3aR,4S,6aS)-2-[2-(trifluoromethyl)pyrimidin-4-yl]octahydrocyclopenta[c]pyrrol-4-yl}-L-leucinamide]
2.84 µM	CN[C@@H](CC(C)C)C(=O)N[C@H]1CC[C@@H]2CN(c3ccccc3F)C[C@@H]21 [Example 619, N-[(3aR,4S,6aS)-2-(2-fluorophenyl)octahydrocyclopenta[c]pyrrol-4-yl]-N^2-methyl-L-leucinamide]
0.74 µM	Cc1ccc(-c2n[nH]cc2CN[C@H]2CC[C@@H]3CN(c4cccc(C(F)(F)F)n4)C[C@@H]32)cc1 [Example 673, (3aR,4S,6aS)-N-{[3-(4-methylphenyl)-1H-pyrazol-4-yl]methyl}-2-[6-(trifluoromethyl)pyridin-2-yl]octahydrocyclopenta[c]pyrrol-4-amine]
2.55 µM	Cc1n[nH]cc1CN[C@H]1CC[C@@H]2CN(c3cccc(C(F)(F)F)n3)C[C@@H]21 [Example 695, (3aR,4S,6aS)-N-[(3-methyl-1H-pyrazol-4-yl)methyl]-2-[6-(trifluoromethyl)pyridin-2-yl]octahydrocyclopenta[c]pyrrol-4-amine]
1.38 µM	O=C(N[C@H]1CC[C@@H]2CN(c3cccc(C(F)(F)F)n3)C[C@@H]21)c1cc2occc2[nH]1 [Example 574, N-{(3aR,4S,6aS)-2-[6-(trifluoromethyl)pyridin-2-yl]octahydrocyclopenta[c]pyrrol-4-yl}-4H-furo[3,2-b]pyrrole-5-carboxamide]
2.59 µM	CN[C@@H](CC(C)C)C(=O)N[C@H]1CC[C@@H]2CN(c3cnccc3C(F)(F)F)C[C@@H]21 [Example 765, N^2-methyl-N-{(3aR,4S,6aS)-2-[4-(trifluoromethyl)pyridin-3-yl]octahydrocyclopenta[c]pyrrol-4-yl}-L-leucinamide]
> 3 µM	CC[C@H](N)C(=O)N[C@H]1CC[C@@H]2CN(c3ccc(C(F)(F)F)cc3)C[C@@H]21 [Example 755, (2S)-2-amino-N-{(3aR,4S,6aS)-2-[4-(trifluoromethyl)phenyl]octahydrocyclopenta[c]pyrrol-4-yl}butanamide]

same assay, conditions: IC50 (μM) or percent inhibition (* indicates 3 minute incubation, otherwise 60 minute), IC50; 3 minute pre-incubation (*); IMR32 cells, 80 mM KCl depolarization

IC50	Compound
3.5 µM	O=C(N[C@@H]1CC[C@H]2CN(Cc3ccccc3)C[C@H]21)C(c1ccccc1)C1CCCCC1 (relative stereo) [Example 4, N-[(3aS*,4R*,6aR*)-2-benzyloctahydrocyclopenta[c]pyrrol-4-yl]-2-cyclohexyl-2-phenylacetamide]

same assay, conditions: read-out: IC50 (μM) or percent inhibition (* indicates 3 minute incubation, otherwise 60 minute); IC50; 60 minute pre-incubation with compound; IMR32 cells, 80 mM KCl depolarization

IC50	Compound
3.79 µM	CC(C)C(C(=O)N[C@H]1CC[C@H]2CN(Cc3ccccc3)C[C@H]21)c1ccccc1 (stereo partly drawn) [Example 14, N-[(3aS,4S,6aR)-2-benzyloctahydrocyclopenta[c]pyrrol-4-yl]-3-methyl-2-phenylbutanamide]
3.78 µM	CN[C@H](CC(C)C)C(=O)N[C@H]1CC[C@H]2CN(Cc3cccc(C(F)(F)F)c3)C[C@H]21 (relative stereo) [Example 160, N^2-methyl-N^1-{(3aS*,4S*,6aR*)-2-[3-(trifluoromethyl)benzyl]octahydrocyclopenta[c]pyrrol-4-yl}-D-leucinamide]
3.82 µM	CC[C@H](C(=O)N[C@H]1CC[C@@H]2CN([C@@H](C)c3ccccc3)C[C@@H]21)c1ccccc1 [Example 211, (2S)-2-phenyl-N-{(3aR,4S,6aS)-2-[(1S)-1-phenylethyl]octahydrocyclopenta[c]pyrrol-4-yl}butanamide]
1.04 µM	CC(C)C(C(=O)N[C@H]1CC[C@@H]2CN(Cc3ccc(C(C)(C)C)cc3)C[C@@H]21)c1ccccc1 (stereo partly drawn) [Example 95, N-[(3aR,4S,6aS)-2-(4-tert-butylbenzyl)octahydrocyclopenta[c]pyrrol-4-yl]-3-methyl-2-phenylbutanamide]
1.93 µM	O=C(N[C@H]1CC[C@H]2CN(CCCc3ccc(C(F)(F)F)cc3)C[C@H]21)C(C1CCCCC1)C1CCCCC1 [Example 70, 2,2-dicyclohexyl-N-((3aS,4S,6aR)-2-{3-[4-(trifluoromethyl)phenyl]propyl}octahydrocyclopenta[c]pyrrol-4-yl)acetamide]
0.83 µM	CC(C)C[C@H](NC(=O)OC(C)(C)C)C(=O)N[C@@H]1CC[C@H]2CN(Cc3cccc(C(F)(F)F)c3)C[C@H]21 (relative stereo) [Example 148, N^2-(tert-butyloxycarbonyl)-N^1-{(3aS*,4R*,6aR*)-2-[3-(trifluoromethyl)benzyl]octahydrocyclopenta[c]pyrrol-4-yl}-L-leucinamide]
1.13 µM	O=C(CCCC(c1ccc(F)cc1)c1ccc(F)cc1)N[C@H]1CC[C@H]2CN(Cc3cccc(C(F)(F)F)c3)C[C@H]21 (relative stereo) [Example 132, 5,5-bis(4-fluorophenyl)-N-{(3aS*,4S*,6aR*)-2-[3-(trifluoromethyl)benzyl]octahydrocyclopenta[c]pyrrol-4-yl}pentanamide]

Compound	IC50
N-methyl-N-((3aR,4S,6aS)-2-{[3-(trifluoromethyl)phenyl]sulfonyl}octahydrocyclopenta[c]pyrrol-4-yl)-L-phenylalaninamide [Example 386]	1.62 µM
